Measured values reported in PubChem BioAssay AID1963838 (Molecular Pharmacology Branch, DTP, NCI, 2024).

Tested on: 855422-203-R-J1-PDC complex spheroid viability
Assay: Anticancer human tumor 855422-203-R-J1-PDC patient-derived bladder carcinoma cell line growth inhibition [POLQ]
Settings: for IC50: curve of first compound; for viability, T/C: stronger effect = lower value
In short: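 Complex spheroid viability model combining PDC tumour cells with endothelial (HUVEC) and MSC stromal cells. Novobiocin, ART-558 or RP6685 were tested singly and in combination with standard and investigational anticancer drugs. Each was titrated in half-log steps from near clinical Cmax, or from 10 microM where Cmax was unknown.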

[1] = second compound 0.0316 µM, first compound 0.0316 µM
[2] = second compound 0.0316 µM, first compound 0.1 µM
[3] = second compound 0.0316 µM, first compound 0.316 µM
[4] = second compound 0.0316 µM, first compound 1 µM
[5] = second compound 0.0316 µM, first compound 3.16 µM
[6] = second compound 0.0316 µM, first compound 10 µM
[7] = second compound 0.1 µM, first compound 0.0316 µM
[8] = second compound 0.1 µM, first compound 0.1 µM
[9] = second compound 0.1 µM, first compound 0.316 µM
[10] = second compound 0.1 µM, first compound 1 µM
[11] = second compound 0.1 µM, first compound 3.16 µM
[12] = second compound 0.1 µM, first compound 10 µM
[13] = second compound 0.316 µM, first compound 0.0316 µM
[14] = second compound 0.316 µM, first compound 0.1 µM
[15] = second compound 0.316 µM, first compound 0.316 µM
[16] = second compound 0.316 µM, first compound 1 µM
[17] = second compound 0.316 µM, first compound 3.16 µM
[18] = second compound 0.316 µM, first compound 10 µM
[19] = second compound 1 µM, first compound 0.0316 µM
[20] = second compound 1 µM, first compound 0.1 µM
[21] = second compound 1 µM, first compound 0.316 µM
[22] = second compound 1 µM, first compound 1 µM
[23] = second compound 1 µM, first compound 3.16 µM
[24] = second compound 1 µM, first compound 10 µM
[25] = second compound 3.16 µM, first compound 0.0316 µM
[26] = second compound 3.16 µM, first compound 0.1 µM
[27] = second compound 3.16 µM, first compound 0.316 µM
[28] = second compound 3.16 µM, first compound 1 µM
[29] = second compound 3.16 µM, first compound 3.16 µM
[30] = second compound 3.16 µM, first compound 10 µM
[31] = second compound 10 µM, first compound 0.0316 µM
[32] = second compound 10 µM, first compound 0.1 µM
[33] = second compound 10 µM, first compound 0.316 µM
[34] = second compound 10 µM, first compound 1 µM
[35] = second compound 10 µM, first compound 3.16 µM
[36] = second compound 10 µM, first compound 10 µM
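Further: spheroids exposed to compounds for seven days before readout.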

C#Cc1c(F)ccc2cc(O)cc(-c3ncc4c(N5CC6CCC(C5)N6)nc(OCC56CCCN5CC(F)C6)nc4c3F)c12 (centres undefined) + Nc1ccc(C#CCN(C(=O)Cc2ncc(C(F)(F)F)cc2C(F)(F)F)c2ccc(F)cc2)nn1
IC50 (second compound 0.0316 µM): > 10 µM
IC50 (second compound 0.1 µM): > 10 µM
IC50 (second compound 0.316 µM): > 10 µM
IC50 (second compound 1 µM): > 10 µM
IC50 (second compound 3.16 µM): > 10 µM
IC50 (second compound 10 µM): > 10 µM
viability, T/C [1]: 110%
viability, T/C [2]: 110%
viability, T/C [3]: 102%
viability, T/C [4]: 98%
viability, T/C [5]: 110%
viability, T/C [6]: 109%
viability, T/C [7]: 96.4%
viability, T/C [8]: 106%
viability, T/C [9]: 85.6%
viability, T/C [10]: 101%
viability, T/C [11]: 138%
viability, T/C [12]: 102%
viability, T/C [13]: 100%
viability, T/C [14]: 120%
viability, T/C [15]: 124%
viability, T/C [16]: 111%
viability, T/C [17]: 120%
viability, T/C [18]: 115%
viability, T/C [19]: 107%
viability, T/C [20]: 98%
viability, T/C [21]: 107%
viability, T/C [22]: 109%
viability, T/C [23]: 113%
viability, T/C [24]: 99%
viability, T/C [25]: 92.5%
viability, T/C [26]: 99%
viability, T/C [27]: 97.9%
viability, T/C [28]: 97.6%
viability, T/C [29]: 108%
viability, T/C [30]: 106%
viability, T/C [31]: 103%
viability, T/C [32]: 94.3%
viability, T/C [33]: 90.7%
viability, T/C [34]: 100%
viability, T/C [35]: 103%
viability, T/C [36]: 91.3%

CC(C)n1c(=O)n(C)c2cnc3cc(F)c(-c4ccc(OCCCN5CCCCC5)nc4)cc3c21 + Nc1ccc(C#CCN(C(=O)Cc2ncc(C(F)(F)F)cc2C(F)(F)F)c2ccc(F)cc2)nn1
IC50 (second compound 0.0316 µM): > 10 µM
IC50 (second compound 0.1 µM): > 10 µM
IC50 (second compound 0.316 µM): > 10 µM
IC50 (second compound 1 µM): > 10 µM
IC50 (second compound 3.16 µM): > 10 µM
IC50 (second compound 10 µM): > 10 µM
viability, T/C [1]: 100%
viability, T/C [2]: 123%
viability, T/C [3]: 110%
viability, T/C [4]: 94.2%
viability, T/C [5]: 99.9%
viability, T/C [6]: 107%
viability, T/C [7]: 99.4%
viability, T/C [8]: 140%
viability, T/C [9]: 97.2%
viability, T/C [10]: 94.4%
viability, T/C [11]: 100%
viability, T/C [12]: 93.5%
viability, T/C [13]: 96.5%
viability, T/C [14]: 128%
viability, T/C [15]: 96.3%
viability, T/C [16]: 99.3%
viability, T/C [17]: 97%
viability, T/C [18]: 96.1%
viability, T/C [19]: 91.8%
viability, T/C [20]: 120%
viability, T/C [21]: 95.1%
viability, T/C [22]: 99.2%
viability, T/C [23]: 101%
viability, T/C [24]: 91.3%
viability, T/C [25]: 97.9%
viability, T/C [26]: 148%
viability, T/C [27]: 98%
viability, T/C [28]: 106%
viability, T/C [29]: 103%
viability, T/C [30]: 92.1%
viability, T/C [31]: 104%
viability, T/C [32]: 101%
viability, T/C [33]: 91.3%
viability, T/C [34]: 100%
viability, T/C [35]: 101%
viability, T/C [36]: 82.8%
